Experimental data: article PMC7782499, “Progerinin, an optimized progerin-lamin A binding inhibitor, ameliorates premature senescence phenotypes of Hutchinson-Gilford progeria syndrome” (Communications Biology, 2021)

Assays:
[1] = Plasma protein binding, human; assay type: in vitro ADME; settings: human, plasma
Description: At pre-set time-points, blood concentration of JH4 was determined by LC-MS/MS analysis[22],[23]. Other chemicals were also tested using similar protocol. In vitro ADME studies (plasma protein binding, CYP inhibition, microsomal stability, plasma stability, and hERG inhibition) were performed by New Drug Development Center (Daegu, Korea) using standard protocols[24],[25].

HGPS cells = experiment: RT-PCR of progerin/prelamin A, CENP-A, IL-6, IL-8, BRCA1 transcripts; assay type: cell-based, human
Description: For RT-PCR, total cellular RNA was extracted using RNA extraction kit (Qiagen). Gene expression studies were performed using cDNA synthesized from total RNA with MMLV RT (Invitrogen, Carlsbad, USA) and random hexamers. PCR from genomic DNA was perform using DiaStar Taq DNA polymerase (SolGent, Daejeon, Korea) and 50 ng of cDNA. Wild-type prelamin A cDNA was synthesized by PCR amplification using a forward primer, 5′-[…]-3′ and a reverse primer, 5′-[…]-3′. The thermal cycling conditions were as follows: 94°C for 3 min (activation), 94°C for 1 min (denaturation), 61°C for 1 min (annealing) and 72°C for 42 sec (extension) up to 35 cycles. The PCR products were analyzed through 2% agarose electrophoresis and DNA was visualized by ethidium bromide staining and UV photography. Levels of other transcripts were also performed with the following oligonucleotide primers: CENP-A, 5′-[…]-3′ and 5′-[…]-3′; BRCA1, 5′-[…]-3′ and 5′-[…]-3′; IL-6, 5′-[…]-3′ and 5′-[…]-3′; IL-8, 5′-[…]-3′ and 5′-[…]-3′ and GAPDH 5′-[…]-3′ and 5′-[…]-3′.
Fig. S3. Chemical screening with JH4 derivatives (a total of 53 chemicals except JH010 and SLC -D011 were used). A. Summarized tables for effects of JH4 derivatives. ‘+’ means s t re ngt h of binding affinity or expression level after treatment of chemicals. […]

Lmna G609G/G609G mouse = system: Lmna G609G/G609G mouse; design: method as in PMID 27617860; settings: intraperitoneal injection; cited from earlier work

CC1(C)Oc2cc3oc(=O)ccc3cc2C[C@@H]1OC/C=C/c1ccccc1 [SLC-D011]
fraction unbound [1]: 0.001
mRNA expression of progerin (HGPS cells): without alteration of mRNA expression of progerin

CC1(C)Oc2cc3oc(=O)ccc3cc2CC1OC(=O)C=Cc1cccnc1 (stereo not shown) [JH4]
Extension of life span (Lmna G609G/G609G mouse): ~ 4 weeks
Increase of life span (Lmna G609G/G609G mouse): ~ 25%
